Assay results: the Deep4Chem optical property database
Each block holds one compound with its values, some of them ahead of it.

Assay: solvent given as SMILES

emission maximum (in C1CCCCC1): 327 nm
Structure (SMILES): COc1ccc([Si](C)(C)C)c2ccccc12

emission maximum (in ClCCl): 509 nm
Structure (SMILES): c1ccc(N2N=C(c3c4ccccc4cc4ccccc34)CC2c2ccc3ccc4cccc5ccc2c3c45)cc1 (stereo not given)

emission maximum (in C1COCCO1): 549 nm
emission maximum (in CC#N): 661 nm
emission maximum (in ClCCl): 615 nm
Structure (SMILES): CCCCN(CCCC)c1ccc(/C=C/c2ccc3nc(/C=C/c4ccc(N(C)C)cc4)c(-c4ccccc4)nc3c2)cc1

emission maximum (in ClC(Cl)Cl): 519 nm
Structure (SMILES): N#CC1=CC(Br)=CC(C#N)=P1(c1ccccc1)c1ccccc1

emission maximum (in CC#N): 425 nm
emission maximum (in CCCCOCCCC): 417 nm
emission maximum (in CO): 428 nm
Structure (SMILES): Nc1ccc2ccc3cccc4ccc1c2c34

emission maximum (in ClC(Cl)Cl): 434 nm
Structure (SMILES): O=C1CC(c2ccc(Cl)cc2)c2c(c3ccccc3c3nc4ccccc4nc23)O1 (stereo not given)

emission maximum (in C1CCCCC1): 455 nm
Structure (SMILES): N#Cc1cc(-c2ccccc2)c(N2c3ccccc3Oc3ccccc32)c(-c2ccccc2)c1

emission maximum (in C1CCOC1): 375 nm
Structure (SMILES): CC(=O)c1ccc(-c2ccc3c(c2)C(=O)c2cc(-c4ccc(C(C)=O)cc4)ccc2-3)cc1

emission maximum (in ClC(Cl)Cl): 361 nm
Structure (SMILES): CCCCCCCCC1(CCCCCCCC)c2cc(-c3ccccc3)ccc2-c2ccc(-c3ccccc3)cc21

emission maximum (in ClC(Cl)Cl): 673 nm
Structure (SMILES): CN1C(=CC2=C([O-])C(=Cc3oc4ccccc4[n+]3C)C2=C(C#N)C#N)C(C)(C)c2ccccc21

emission maximum (in ClCCl): 501 nm
Structure (SMILES): CCN(CC)c1ccc2c(c1)oc(=O)c1cc3cnn(-c4ccccc4)c3nc12

emission maximum (in CCO): 305 nm
Structure (SMILES): c1ccc(C2c3ccccc3-c3ccccc32)cc1

emission maximum (in O): 385 nm
Structure (SMILES): O=S(=O)([O-])c1ccc2c(O)cc(S(=O)(=O)[O-])cc2c1

emission maximum (in ClC(Cl)Cl): 451 nm
Structure (SMILES): CC(C)(C)n1c(=O)c2cc3ccc4cccc5ccc(c2c1=O)c3c45

emission maximum (in C1CCOC1): 492 nm
Structure (SMILES): COc1cc2c(c(OC)c1OC)c1ccc3cccc4c5cccc6oc(=O)c2c(c65)c1c34

emission maximum (in O): 438 nm
Structure (SMILES): O=C(O)CCCCCNC(=O)c1cccc2c(=O)c3ccccc3[nH]c12

emission maximum (in O): 350 nm
Structure (SMILES): [NH3+]C(Cc1c[nH]c2ccccc12)C(=O)[O-] (stereo not given)

emission maximum (in CS(C)=O): 418 nm
Structure (SMILES): Clc1ccc(-c2nc3sc4ccccc4c3s2)cc1

emission maximum (in C1CCCCC1): 462 nm
emission maximum (in CC#N): 602 nm
emission maximum (in CO): 480 nm
emission maximum (in CS(C)=O): 609 nm
emission maximum (in c1ccccc1): 497 nm
Structure (SMILES): CN(C)c1ccc(C(=O)c2ccccc2)cc1

emission maximum (in CCO): 461 nm
Structure (SMILES): COc1ccc(C(=O)OCc2c(C)c(=O)n3c(=O)c(C)c(C)n23)cc1

The next lines start with the compound.

Structure (SMILES): CC(C)(C)c1ccc(C2=c3c(c4ccc(C(C)(C)C)cc4c4cc(C(C)(C)C)ccc34)=[N+]3C2=C(c2ccccc2)c2c(-c4ccc(C(C)(C)C)cc4)c4c5ccc(C(C)(C)C)cc5c5cc(C(C)(C)C)ccc5c4n2[B-]3(F)F)cc1
emission maximum (in C1CCCCC1): 711 nm
emission maximum (in C1CCOC1): 712 nm
emission maximum (in CC#N): 706 nm
emission maximum (in Cc1ccccc1): 714 nm
emission maximum (in ClCCl): 712 nm

Structure (SMILES): COC(=O)C(Cc1ccc2oc(-c3ccc(N(C)C)cc3)nc2c1)NC(=O)OC(C)(C)C (stereo not given)
emission maximum (in C1CCCCC1): 377 nm
emission maximum (in C1CCOC1): 391.5 nm
emission maximum (in C1COCCO1): 377 nm
emission maximum (in CC1CCCO1): 384.5 nm
emission maximum (in CC1COC(=O)O1): 404.01 nm
emission maximum (in CC#N): 395.51 nm
emission maximum (in CC(C)=O): 394.49 nm
emission maximum (in CC(C)CC(C)(C)C): 375 nm
emission maximum (in CC(C)CO): 396.49 nm
emission maximum (in CC(C)O): 397 nm
emission maximum (in CC(C)OC(C)C): 387.51 nm
emission maximum (in CC(O)CO): 408.5 nm
emission maximum (in CCC(C)CC): 374.5 nm
emission maximum (in CCCCC): 374 nm
emission maximum (in CCCCCC): 375 nm
emission maximum (in CCCCCCCCC): 376 nm
emission maximum (in CCCCCCCCCC): 377 nm
emission maximum (in CCCCCCCO): 396.49 nm
emission maximum (in CCCCCCO): 397.99 nm
emission maximum (in CCCCCO): 388.5 nm
emission maximum (in CCCCO): 399.5 nm
emission maximum (in CCO): 403 nm
emission maximum (in CCOC(C)=O): 381.5 nm
emission maximum (in CCOCC): 379.51 nm
emission maximum (in CN(C)C=O): 400.5 nm
emission maximum (in CO): 403.5 nm
emission maximum (in COCCOC): 395.51 nm
emission maximum (in CS(C)=O): 408.5 nm
emission maximum (in Cc1ccccc1): 374.5 nm
emission maximum (in Cc1ccccc1C): 373 nm
emission maximum (in ClC(Cl)Cl): 382 nm
emission maximum (in ClCCl): 388 nm
emission maximum (in NC=O): 411.51 nm
emission maximum (in OC1CCCCC1): 398.99 nm
emission maximum (in OCCO): 408.5 nm
emission maximum (in c1ccccc1): 375.5 nm

Structure (SMILES): CCCCC(CC)Cn1c2cc(C#N)ccc2c2ccc(C#Cc3cc(C#Cc4ccc5c6ccc(C#N)cc6n(CC(CC)CCCC)c5c4)c4ccc5c(C#Cc6ccc7c8ccc(C#N)cc8n(CC(CC)CCCC)c7c6)cc(C#Cc6ccc7c8ccc(C#N)cc8n(CC(CC)CCCC)c7c6)c6ccc3c4c65)cc21 (stereo not given)
emission maximum (in ClCCl): 486 nm

Structure (SMILES): CCCCCCCCOc1ccc(C#Cc2ccc(C#Cc3ccc(OCCCCCCCC)c(OCCCCCCCC)c3)c3nc4c5ccccc5c5ccccc5c4nc23)cc1OCCCCCCCC
emission maximum (in C1CCOC1): 558 nm
emission maximum (in Cc1ccccc1): 541 nm
emission maximum (in ClCCl): 566 nm

Structure (SMILES): CCC1(CC)c2cc(B(c3c(C)cc(C)cc3C)c3c(C)cc(C)cc3C)ccc2-c2c1c1c(c3c2C(CC)(CC)c2cc(N(c4ccccc4)c4ccccc4)ccc2-3)C(CC)(CC)c2cc(B(c3c(C)cc(C)cc3C)c3c(C)cc(C)cc3C)ccc2-1
emission maximum (in C1CCOC1): 500 nm
emission maximum (in CC#N): 582 nm
emission maximum (in CC(C)=O): 550 nm
emission maximum (in CCCCCC): 421 nm
emission maximum (in CCCO): 501 nm
emission maximum (in CCO): 512 nm
emission maximum (in Cc1ccccc1): 444 nm
emission maximum (in ClC(Cl)Cl): 473 nm

Structure (SMILES): COc1cccc2cc(-c3cc4cccc(OC)c4oc3=O)oc12
emission maximum (in CC#N): 488 nm
emission maximum (in CCOC(C)=O): 460 nm
emission maximum (in CS(C)=O): 488 nm
emission maximum (in Cc1ccccc1): 448 nm
emission maximum (in O): 504 nm

Structure (SMILES): Cn1ccc(=O)n(C)c1=O
emission maximum (in CC#N): 308 nm

Structure (SMILES): CCN(CC)c1ccc2cc(-c3ccc(C(F)(F)F)cc3)oc(=O)c2c1
emission maximum (in CC(C)=O): 454 nm
emission maximum (in CCCCCC): 418 nm
emission maximum (in CCCCO): 468 nm
emission maximum (in CCCO): 470 nm
emission maximum (in CCO): 471 nm
emission maximum (in CCOC(C)=O): 443 nm
emission maximum (in CN(C)C=O): 462 nm
emission maximum (in CO): 475 nm
emission maximum (in ClC(Cl)Cl): 450 nm

Structure (SMILES): COc1cc(OC)c2c(c1)C(=O)c1cc(OC)cc(OC)c1-2
emission maximum (in C1CCCCC1): 585 nm

Structure (SMILES): N#CC=C(c1ccc(N2c3ccccc3Oc3ccccc32)cc1)c1ccc(N2c3ccccc3Oc3ccccc32)cc1
emission maximum (in Cc1ccccc1): 574 nm

Structure (SMILES): Cc1ccc(-c2nc(-c3ccc(C#N)cc3)[nH]c2-c2ccc(C)cc2)cc1
emission maximum (in CO): 447 nm

Structure (SMILES): CCn1c2ccccc2c2cc(C#Cc3cc(C#Cc4ccc5c(c4)c4ccccc4n5CC)nc(OC)n3)ccc21
emission maximum (in C1CCOC1): 445 nm
emission maximum (in CCOC(C)=O): 442 nm
emission maximum (in CN(C)C=O): 499 nm
emission maximum (in Cc1ccccc1): 411 nm
emission maximum (in ClCCl): 467 nm

Structure (SMILES): COc1nc(Cl)nc(Nc2ccc3c4c(cccc24)C(=O)c2ccccc2-3)n1
emission maximum (in CC#N): 537.92 nm
emission maximum (in CC(C)=O): 526.87 nm
emission maximum (in CC(C)O): 570.13 nm
emission maximum (in CCCCOCCCC): 507.1 nm
emission maximum (in CCOC(C)=O): 520.02 nm
emission maximum (in CCOCC): 514.14 nm
emission maximum (in CO): 578.03 nm
emission maximum (in Cc1ccccc1): 518.13 nm
emission maximum (in Clc1ccccc1): 524.93 nm
emission maximum (in N#Cc1ccccc1): 526.04 nm
emission maximum (in O=C1CCCCC1): 524.11 nm

Structure (SMILES): CCCCCCCCC1(CCCCCCCC)c2cc(-c3ccc(C=C4C(=O)c5ccccc5C4=O)cc3)ccc2-c2ccc(-c3ccc(C=C4C(=O)c5ccccc5C4=O)cc3)cc21
emission maximum (in C1CCOC1): 531 nm
emission maximum (in CC(C)=O): 568 nm
emission maximum (in CCCCCC): 462 nm
emission maximum (in CS(C)=O): 596 nm
emission maximum (in Cc1ccccc1): 486 nm
emission maximum (in ClC(Cl)Cl): 530 nm

Structure (SMILES): CCNc1ccc(NCC)c2c1C(=O)c1ccccc1C2=O
emission maximum (in C1CCCCC1): 670 nm
emission maximum (in C1COCCO1): 684 nm
emission maximum (in CC(C)=O): 671 nm
emission maximum (in CCCCCCCCCCO): 672 nm
emission maximum (in CCCCCCCO): 666 nm
emission maximum (in CCCCCCO): 663 nm
emission maximum (in CCCCO): 670 nm
emission maximum (in CCO): 672 nm
emission maximum (in CN(C)C=O): 680 nm
emission maximum (in CO): 669 nm
emission maximum (in CS(C)=O): 672 nm
emission maximum (in ClC(Cl)(Cl)Cl): 679 nm
emission maximum (in c1ccccc1): 670 nm

Structure (SMILES): CC1(C)C2=[N+](CCCCCC(=O)NCCCNC(=O)CCCCCN3/C(=C/C=C/C=C/C=C/2)C(C)(C)c2cc(S(=O)(=O)[O-])ccc23)c2ccc(S(=O)(=O)[O-])cc21
emission maximum (in CO): 776 nm
emission maximum (in O): 768 nm

Structure (SMILES): COc1ccc(C2=C3C=CC(C)=[N+]3[B-](F)(F)n3c(C)ccc32)cc1
emission maximum (in C1CCCCC1): 521 nm
emission maximum (in C1CCOC1): 521 nm
emission maximum (in CC#N): 517 nm
emission maximum (in CCOC(C)=O): 518 nm
emission maximum (in CO): 518 nm
emission maximum (in Cc1ccccc1): 524 nm
emission maximum (in ClC(Cl)Cl): 523 nm

Structure (SMILES): CC[N+]1(CC)CN2C(=N1)C(C(=O)O)=Cc1c(OC)ccc(OC)c12
emission maximum (in O): 515 nm

Structure (SMILES): CCCCN(CCCC)c1ccc(C#Cc2cc(C#Cc3c(F)c(F)c(F)c(F)c3F)c(C#Cc3ccc(N(CCCC)CCCC)cc3)cc2C#Cc2c(F)c(F)c(F)c(F)c2F)cc1
emission maximum (in ClCCl): 563 nm
emission maximum (in c1ccccc1): 534 nm

Structure (SMILES): Cc1cc(C)c(B(c2c(C)cc(C)cc2C)c2cc3ccc4ccccc4c3c3c2cc(N(C)C)c2ccccc23)c(C)c1
emission maximum (in C1CCCCC1): 554 nm
emission maximum (in C1CCOC1): 601 nm
emission maximum (in CC#N): 613 nm
emission maximum (in ClC(Cl)Cl): 585 nm
emission maximum (in c1ccccc1): 582 nm

Structure (SMILES): COc1ccc(-c2ccc(OC)cc2)cc1
emission maximum (in C1CCCCC1): 363.77 nm

Structure (SMILES): c1ccc(/C(=C(\c2ccccc2)c2cc(-c3ccccc3)ccc2-c2ccc(-c3ccccc3)cc2)c2cc(-c3ccccc3)ccc2-c2ccc(-c3ccccc3)cc2)cc1
emission maximum (in C1CCOC1): 494 nm

Structure (SMILES): c1cncc(-c2ccc(-c3c4ccc(-c5cccnc5)cc4c(-c4ccc(-c5cccnc5)cc4)c4ccc(-c5cccnc5)cc34)cc2)c1
emission maximum (in ClCCl): 443 nm

Structure (SMILES): COc1ccc(N(c2ccccc2)c2ccc3ccc4c(N(c5ccccc5)c5ccc(OC)cc5)ccc5ccc2c3c54)cc1
emission maximum (in ClCCl): 513 nm
